Structures can show the parent of a compound that is named as a salt.
Legend:
[1] = tested on: Chinese Hamster Ovary (CHO) cells; experiment: Transfection of CHO cells using lipopolyplexes, β-galactosidase reporter gene expression; assay type: cell-based
Excerpt: Transfection of Chinese Hamster Ovary (CHO) Cells Using Lipopolyplexes
Plasmid pEGlacZ containing the bacterial β-galactosidase gene under the control of the human cytomegalovirus immediate early promoter was constructed using standard molecular cloning techniques. The 7676 base pair (bp) plasmid was derived by cleavage of pGFP-N1 (Clontech) with HindIII and BclI to remove the reporter gene fragment. The β-galactosidase coding region from pSV-β-galactosidase (Promega) was then inserted via a HindIII to BamHI fragment. Plasmid DNA was then purified using an anion-exchange column (Qiagen Ltd). The average molecular weight per base pair was calculated to be 620.84 Da (310.5 Da for a monophosphorylated nucleotide). The amount of negative charge on the plasmid was then determined on the basis that a single negative charge is associated with each nucleotide.
[…] Lipid films were formed by rotary evaporation at 60° C. and further dried on a freeze drier overnight. Rehydration of the lipid film was performed by adding 4 mL of deionised water and […] 1M NaOH at 60° C. with vigorous agitation in the presence of […] diameter glass beads, taking care to maintain pH in the range 7.5 to 8.0, resulting in the formation of multi-lamellar vesicles (MLVs).
Stock solutions of R26 peptide as a DNA condensing agent at 144 μg/ml and plasmid DNA at 60 μg/ml were prepared in de-ionized water. Equal volumes of each were mixed by adding the plasmid DNA drop-wise to the R26 solution with vortexing. The charge ratio of the polyplex was 3.9:1 (peptide positive charged residues to DNA negative charged phosphates).
The polyplex preparation was diluted in 10 mM HEPES buffer pH 8 to 15 μg/ml DNA equivalent. […] Lipopolyplexes were formed by adding equal volumes of polyplex solution drop-wise to liposome suspension with vortexing.
CHO cells were seeded into 24-wellplates at 100 000 cells per well in Opti-MEM (Gibco BRL) media containing 10% dialysed foetal calf serum (FCS, Gibco BRL) and maintained 37° C. in 5% CO2 incubator for 24 h before the experiment. The adherent cells were washed once in Opti-MEM (Gibco BRL) prior to transfection. Washed medium was removed and replaced with 0.5 ml of Opti-MEM to which 167 μl of lipopolyplex was added ([…]). Individual lipopolyplex preparations were tested in triplicate wells. Cells were incubated for a further 4 h at 37° C. in 5% CO2 before removal of the medium and non-cell associated lipopolyplex and addition of 1 ml of fresh medium (Dulbecco's modified Eagle's medium (DMEM), plus glutamate, asparagine, adenosine, guanosine, cytidine, uridine, thymidine and 10% FCS.
Cells were cultured for a further 72 h before harvesting, the medium was aspirated and the cells washed twice with 1 ml phosphate buffered saline. Cells were lysed by the addition of 200 μl per well of lysis buffer (Promega) and the plate was agitated on an orbital mixer for 15 min. The lysates were transferred to individual Eppendorf tubes, taking care to remove attached cells by scraping with a pipette tip prior to removal. Cell debris was removed by centrifugation in a microfuge for 5 min followed by transfer of the supernatant into clean Eppendorf tubes.
Levels of β-galactosidase (β-gal) activity were determined using a colorimetric enzyme assay kit (Promega) as follows: 50 μl of cell extract was incubated with the kit substrate, O-nitrophenyl-β-D-galactopyranoside in buffer solution for 30 min at 37° C. The reaction was stopped by the addition of 150 μl of 1M sodium carbonate and the absorbance measured at 420 nm (Multiskan Ascent plate reader, Labsystems). Absorbance values were interpolated from a calibration curve to give enzyme activity in mU per ml. In turn these values were normalised in reference to lysate protein concentration as determined by a BCA assay kit (Pierce) and expressed as mU of β-gal per mg of protein.
An anionic liposome composition was evaluated comprising DOPC and CHEMS in the presence and absence of Compound 2. […]

## CCCCCCCCCCCCCCCCCCOC[C@@H](COP(=O)(OCCCCCCCCCCCc1cc(CC(C)(C)C(=O)OC)cc(CC(C)(C)C(=O)OC)c1)Oc1ccccc1Cl)OCCCCCCCCCCCCCCCCCC (stereo partly shown)
other
  melting point: 27 to 27.5 °C

## CC(C)CCCC(C)C1CCC2C3CC=C4C[C@H](OP(=O)(O)OCCCCCCCCCCCc5cc(CC(C)(C)C(=O)O)cc(CC(C)(C)C(=O)O)c5)CC[C@]4(C)C3CC[C@]12C (stereo partly drawn) [Compound 2, 3,3′-(5-(11-(((((3R,10R,13R)-10,13-Dimethyl-17-(6-methylheptan-2-yl)-2,3,4,7,8,9,10,11,12,13,14,15,16,17-tetradecahydro-1H-cyclopenta[a]phenanthren-3-yl)oxy)(hydroxy)phosphoryl)oxy)undecyl)-1,3-phenylene)bis(2,2-dimethylpropanoic acid), ammonium salt]
[1]; Example 22, FIG. 1, cholesterol/oleic acid totally substituted with Compound 2 at 40 mol %
  reporter gene expression: highest
[1]; Example 22, FIG. 1, higher lipid to DNA ratios (above 2:1), exception: 5:1 lipid to DNA with 20 mol % Compound 2
  reporter gene expression levels: not significant
[1]; Example 22, FIG. 1, lipid to DNA ratio 2:1, Compound 2 content 1 to 40 mol %
  reporter gene expression: increased with increasing content of Compound 2
[1]; Example 22, FIG. 1, lipopolyplexes with cholesterol, oleic acid and DOPC, 1 mol % Compound 2
  expression of β-galactosidase: little or no expression
[1]; Example 23, FIG. 2, DOPC/CHEMS lipopolyplexes, 20 mol % Compound 2, lipid to DNA ratios 0.6:1 to 5.5:1
  levels of β-galactosidase expression: high, significant levels
[1]; overall conclusion from Examples 22 and 23
  transfection enhancement via endosomolytic properties: confirming the effectiveness of Compound 2 as a transfection enhancing agent

From patent publication US10842884B2, “Endosomolytic agents for gene therapy” (UCB Biopharma SRL, priority 2016, dated 2020)
